PMC12196264, “Design and Synthesis of Pyridine-Based Pyrrolo[2,3-d]pyrimidine Analogs as CSF1R Inhibitors: Molecular Hybridization and Scaffold Hopping Approach” (Pharmaceuticals, 2025)
In brackets after ≈: the same amount, converted by molar mass.

Key:
MDCK permeability assay = assay type: in vitro ADME, canine; details: dog, MDCK monolayer; for Papp A→B: A–B direction; for Papp B→A: B–A direction; for efflux ratio: read-out: MDCK Ratio (Papp B–A/A–B)
Method: Six selected compounds were assessed for metabolic stability (clearance) in mouse liver microsomes (MLM) and human liver microsomes (HLM), and apparent permeability (Papp) using a MDCK permeability assay. […] Although currently limited by solubility and permeability, its metabolic profile provides a starting point for targeted structural modifications aimed at overcoming these challenges.

Kinetic solubility = assay type: physicochemical; details: aqueous buffer, kinetic from dmso stock; spectrophotometric, pH 7.4 in HEPES buffer
Method: (§1) The aqueous solubility of the compounds and metabolic stability under oxidative conditions was performed as described previously.

[1] = system: Ba/F3 cells engineered to be dependent on CSF1R but added additional IL-3; test: Cell viability assay with Ba/F3-hCSF1R cells with added IL-3; assay type: cell-based; details: Mus musculus, BaF3; Ba/F3 CSF1R cells with additional IL-3; read-out: Cellular Assay IC50 (μM), Ba/F3 IL-3
Method: (§2) Given the promising enzymatic activity of the synthesized derivatives, cellular assays were performed using Ba/F3 cells engineered to depend on constitutively active CSF1R. […] We have also previously observed a low correlation between enzymatic and cellular activities, which may arise from the enzymatic protein construct not accurately mimicking the active conformation of CSF1R in a cellular context.
(§3) Performed as reported previously.

[2] = system: Ba/F3 cells engineered to be dependent on CSF1R; test: Cell viability assay with Ba/F3-hCSF1R cells; assay type: cell-based; details: for IC50: Mus musculus, BaF3, Ba/F3 cells dependent on CSF1R, with standard deviation, read-out: Cellular Assay IC50 (μM), Ba/F3 CSF1R
Method: as §2, §3

CSF1R = CSF1R (Homo sapiens, UniProt P07333); test: CSF1R enzymatic inhibitory assay (TR-FRET LANCE Ultra); assay type: biochemical; details: single eight-point titrations, ATP 25 μM, R^2 of fit in parentheses
Sequence of CSF1R (P07333 20-972): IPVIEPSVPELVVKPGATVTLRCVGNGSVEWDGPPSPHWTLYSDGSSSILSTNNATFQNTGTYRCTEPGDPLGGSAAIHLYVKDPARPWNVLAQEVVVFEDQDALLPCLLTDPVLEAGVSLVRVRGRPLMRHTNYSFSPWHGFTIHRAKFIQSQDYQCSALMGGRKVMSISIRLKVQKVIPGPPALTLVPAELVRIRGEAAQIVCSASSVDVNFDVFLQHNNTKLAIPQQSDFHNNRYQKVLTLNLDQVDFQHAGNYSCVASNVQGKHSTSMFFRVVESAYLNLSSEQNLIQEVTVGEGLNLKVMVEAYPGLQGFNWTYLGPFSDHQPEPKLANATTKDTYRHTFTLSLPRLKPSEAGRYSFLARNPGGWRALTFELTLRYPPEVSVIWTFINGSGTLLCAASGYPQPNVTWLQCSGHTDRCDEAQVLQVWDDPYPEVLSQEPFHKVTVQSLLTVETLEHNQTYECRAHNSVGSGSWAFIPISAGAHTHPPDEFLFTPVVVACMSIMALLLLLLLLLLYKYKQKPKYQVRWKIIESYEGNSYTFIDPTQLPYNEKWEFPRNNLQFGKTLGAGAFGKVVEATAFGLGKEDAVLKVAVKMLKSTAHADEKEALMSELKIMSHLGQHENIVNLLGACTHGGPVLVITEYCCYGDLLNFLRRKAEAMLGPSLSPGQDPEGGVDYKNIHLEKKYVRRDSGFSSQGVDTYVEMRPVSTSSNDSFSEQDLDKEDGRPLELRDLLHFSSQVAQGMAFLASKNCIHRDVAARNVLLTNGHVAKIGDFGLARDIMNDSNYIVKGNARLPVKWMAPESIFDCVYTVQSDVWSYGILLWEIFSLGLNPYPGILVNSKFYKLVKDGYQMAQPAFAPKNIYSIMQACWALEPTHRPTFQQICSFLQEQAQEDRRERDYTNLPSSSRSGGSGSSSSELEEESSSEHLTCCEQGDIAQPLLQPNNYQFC
Method: The TR-FRET-based LANCE Ultra assay (Perkin Elmer, Waltham, MA, USA) was used to determine IC50 values for various CSF1R inhibitors. Kinase activity and inhibition in this assay was measured as previously reported. Scigilian Analyze software version 5.8.5.15 (Scigilian, Montreal, QC, Canada) was used.

cKIT = cKIT (Homo sapiens, UniProt P10721); test: KIT-WT LanthaScreen binding assay (Kd); details: single eight-point titrations, TR-FRET LanthaScreen Binding Assay; R^2 of fit in parentheses; read-out: Enzymatic Assay KIT (Kd)
Sequence of cKIT (P10721 26-976): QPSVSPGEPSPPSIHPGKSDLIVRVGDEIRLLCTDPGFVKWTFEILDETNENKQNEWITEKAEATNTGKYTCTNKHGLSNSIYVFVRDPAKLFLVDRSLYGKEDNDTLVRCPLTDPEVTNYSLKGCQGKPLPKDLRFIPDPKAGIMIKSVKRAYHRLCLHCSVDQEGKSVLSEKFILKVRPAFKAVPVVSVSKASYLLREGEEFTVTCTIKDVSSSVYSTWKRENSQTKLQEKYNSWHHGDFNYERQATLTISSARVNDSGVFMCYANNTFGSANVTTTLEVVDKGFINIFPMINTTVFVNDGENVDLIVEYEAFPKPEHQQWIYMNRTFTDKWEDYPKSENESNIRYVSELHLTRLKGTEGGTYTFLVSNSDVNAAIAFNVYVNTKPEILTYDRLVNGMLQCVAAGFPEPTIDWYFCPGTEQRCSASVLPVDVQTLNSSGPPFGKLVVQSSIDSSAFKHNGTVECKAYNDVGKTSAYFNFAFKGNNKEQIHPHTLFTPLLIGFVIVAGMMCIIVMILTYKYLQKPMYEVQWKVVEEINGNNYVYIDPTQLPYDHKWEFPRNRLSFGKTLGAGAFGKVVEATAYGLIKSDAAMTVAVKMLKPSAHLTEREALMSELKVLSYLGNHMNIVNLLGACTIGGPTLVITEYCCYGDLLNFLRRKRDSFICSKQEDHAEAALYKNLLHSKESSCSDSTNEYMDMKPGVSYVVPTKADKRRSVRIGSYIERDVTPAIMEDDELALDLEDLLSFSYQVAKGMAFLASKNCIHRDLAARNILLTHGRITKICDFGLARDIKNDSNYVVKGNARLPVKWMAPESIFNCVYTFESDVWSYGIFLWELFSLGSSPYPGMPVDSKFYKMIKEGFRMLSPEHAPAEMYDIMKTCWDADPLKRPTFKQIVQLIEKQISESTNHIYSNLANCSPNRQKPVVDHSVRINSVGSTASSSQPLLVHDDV
Method: The TR-FRET-based LanthaScreen Binding Assay was performed to determine Kd values of synthesized derivatives against cKIT.
Subsequently, 8 µL of kinase anti-GST antibody mixture was added, followed by incubation at 4 °C for 30 min in a pre-cooled, humidified box to minimize edge effects. The reaction was initiated by adding 5 µL of tracer working solution and mixed on a Bioshake 5000 microplate shaker (Q Instruments, Jena, Germany). […] Kd values were calculated from sigmoidal dose-response curves using Scigilian Analyze software version 5.8.5.15 (Scigilian, Montreal, QC, Canada).

[3] = Microsomal stability, mouse liver microsomes; assay type: in vitro ADME; details: mouse liver microsome
Method: as §1

Row | SMILES | Papp A→B (MDCK permeability assay) [×10⁻⁶ cm/s] | Papp B→A (MDCK permeability assay) [×10⁻⁶ cm/s] | solubility kinetic (Kinetic solubility) [µM] | IC50 [1] [µM] | IC50 [2] [µM] | IC50 (CSF1R) [nM] | Kd (cKIT) [nM] | efflux ratio (MDCK permeability assay) | MLM in vitro intrinsic clearing [3] [µL/min/mg] | Cellular activity in Ba/F3 CSF1R cells (in words) ([2]; Ba/F3 cells dependent on constitutively active CSF1R)
1 | FC(F)(F)c1ccc(CNc2ccc(Cc3c[nH]c4ncc(Cl)cc34)cn2)cn1 [Pexidartinib, reference compound] | 4.5 | 1.5 | 20.5 (≈ 8.57 µg/mL) | 6.54 ± 0.61 | 0.064 ± 0.04 | – | – | – | – | –
2 | COc1ccc(CNc2ccc(-c3cc4c(N(C)Cc5cccc(C)c5)ncnc4[nH]3)cn2)cc1 [Compound 12e, 6-(6-((4-Methoxybenzyl)amino)pyridin-3-yl)-N-methyl-N-(3-methylbenzyl)-7H-pyrrolo[2,3-d]pyrimidin-4-amine] | – | – | – | 9.25 | 6.24 | 10.5 | > 1000 | – | – | –
3 | CN(Cc1ccc(NCc2ccccn2)nc1)c1ncnc2[nH]ccc12 [Compound 4b, N-Methyl-N-((6-((pyridin-2-ylmethyl)amino)pyridin-3-yl)methyl)-7H-pyrrolo[2,3-d]pyrimidin-4-amine] | 42 | 28.8 | 441 (≈ 152 µg/mL) | > 10 | > 10 | > 1000 | > 1000 | 0.69 | 101.9 | –
4 | CN(Cc1ccc(NCc2ccc(C(F)(F)F)nc2)nc1)c1ncnc2[nH]ccc12 [Compound 4c, N-Methyl-N-((6-(((6-(trifluoromethyl)pyridin-3-yl)methyl)amino)pyridin-3-yl)methyl)-7H-pyrrolo[2,3-d]pyrimidin-4-amine] | 18.3 | 10 | 20.9 (≈ 8.64 µg/mL) | > 10 | 9.96 ± 0.02 | > 1000 | > 1000 | 0.55 | 150.7 | –
5 | Cc1cccc(CN(C)c2ncnc3[nH]c(-c4ccc(NCc5cccc(C)c5C)nc4)cc23)c1 [Compound 12d, 6-(6-((2,3-Dimethylbenzyl)amino)pyridin-3-yl)-N-methyl-N-(3-methylbenzyl)-7H-pyrrolo[2,3-d]pyrimidin-4-amine] | – | – | – | – | – | > 1000 | > 1000 | – | – | –
6 | CN(Cc1ccc(NCc2ccccc2)nc1)c1ncnc2[nH]ccc12 [Compound 4a, N-((6-(Benzylamino)pyridin-3-yl)methyl)-N-methyl-7H-pyrrolo[2,3-d]pyrimidin-4-amine] | 34 | 24.7 | 20.9 (≈ 7.2 µg/mL) | 1.39 ± 0.4 | 1.16 ± 0.22 | 857 | > 1000 | 0.72 | 277.3 | relatively high cellular activity
7 | Cc1cccc(CN(C)c2ncnc3[nH]c(-c4ccc(NCc5ccccc5)nc4)cc23)c1 [Compound 14a, 6-(6-(Benzylamino)pyridin-3-yl)-N-methyl-N-(3-methylbenzyl)-7H-pyrrolo[2,3-d]pyrimidin-4-amine] | – | – | – | – | – | 6 | > 1000 | – | – | –
8 | Cc1cccc(CN(C)c2ncnc3[nH]cc(-c4ccc(NCc5cccnc5)nc4)c23)c1 [Compound 8, N-Methyl-N-(3-methylbenzyl)-5-(6-((pyridin-3-ylmethyl)amino)pyridin-3-yl)-7H-pyrrolo[2,3-d]pyrimidin-4-amine] | 15.9 | 4.4 | 70.4 (≈ 30.7 µg/mL) | > 10 | 8.46 ± 0.89 | > 1000 | 397 | 0.27 | 1540.3 | –
